The source of these data is US11254680B2, “Cyclic iminopyrimidine derivatives as kinase inhibitors” (ABM Therapeutics Corporation, priority 2017, dated 2022).

SMILES strings stand for the structures.

This experiment has as its system A375 melanoma cells. Briefly: Antiproliferation assay in A375 cell line by CellTiter Glo. It is filed as cell-based. Particulars: Homo sapiens, A-375, 72 hours or 144 hours. As to the method:
In vitro anti-proliferation study of test compounds in A375 cell line by CellTiter Glo. The cells were routinely maintained as a monolayer culture in corresponding culture medium, at 37° C. with 5% CO2 in air.
Harvest the exponential growth cells by trypsin-EDTA digestion. Re-suspend the cell pellet in fresh culture medium, and adjust the concentration to needed (the cell density per well was listed in following form). The cell viability is over 98% by Trypan blue staining. Inoculate cells into 96 wells plates according to the plate map (90 μL/well). Incubate the plates at 37° C. and 5% CO2 overnight. The next day, prepare the 10×compound containing medium according to the plate map. Transfer 10 μL of 10×compound containing medium into each well of the assay plates (the final DMSO concentration is 0.5%). Gently mix the medium and incubate at 37° C. and 5% CO2 for another 72 hours or 144 hours.
Prepare the reagent according to the manufacture's instruction. Add 50 μL CellTiter-Glo Reagent in each well. Mix contents for 2 minutes on an orbital shaker to induce cell lysis. Allow the plate to incubate at room temperature for 10 minutes to stabilize luminescent signal. Transfer 100 μL of reaction contents of each well from the clear plates into white walled/white opaque 96-well plates. Record the luminescence on Envision.
Using the luminescence measurements [time zero (T0), control growth (C), and test growth in the presence of drug at the six concentration levels (Ti)], the percentage growth is calculated at each of the drug concentrations levels.
Percentage growth inhibition (GI) is calculated as: GI (%)═[(Ti-T0)/(C-T0)]×100 for concentrations for which Ti>=T0, and GI (%)═[(Ti-T0)/T0]×100 for concentrations for which Ti<T0. Data were analyzed using the XLFit (Excel) tool, fitting to a 4-parameter equation to generate concentration response curves. Concentration of compound that inhibits 50% of control cell growth (GI50) was back-interpolated when y=50% of net growth of DMSO treated control wells using nonlinear regression with the equation: f(x) 205 [fit=(A+((B−A)/(1+((C/x)^))))], where A is the minimum response (Ymin), B is the maximum response (Ymax), C is the inflection point of the curve (Re GI50) and D is the Hill coefficient. Growth inhibition of 50% (GI50) was calculated at the 50% Growth inhibition on the curve. Index values were the sum of Inhibition rate (IR) at each tested compound concentration.
On the technique in general: In ATP-based viability assays light output follows the ATP content of the culture.
In turn, `CCCS(=O)(=O)Nc1c(F)cc(F)c(Oc2ccc3c(c2)C2=NCCN2C=N3)c1C#N` [Compound 4, N-(2-Cyano-3-((2,3-dihydroimidazo[1,2-c]quinazolin-9-yl)oxy)-4,6-difluorophenyl)propane-1-sulfonamide] returned a GI50 of 100 to 1000 nM.
The figure for `CCCS(=O)(=O)Nc1ccc([N+](=O)[O-])c(Oc2ccc3c(c2)C2=NCCN2C=N3)c1F` [Compound 7, N-(3-((2,3-Dihydroimidazo[1,2-c]quinazolin-9-yl)oxy)-2-fluoro-4-nitrophenyl)propane-1-sulfonamide] is more than 1000 nM; for `CCCS(=O)(=O)Nc1ccc(N)c(Oc2ccc3c(c2)C2=NCCN2C=N3)c1F` [Compound 8, N-(4-Amino-3-((2,3-dihydroimidazo[1,2-c]quinazolin-9-yl)oxy)-2-fluorophenyl)propane-1-sulfonamide] it is more than 1000 nM.
The figure for `CCCS(=O)(=O)Nc1ccc(F)c(Oc2ccc3c(c2)C2=NCCN2C=N3)c1F` [Compound 10, N-(3-((2,3-Dihydroimidazo[1,2-c]quinazolin-9-yl)oxy)-2,4-difluorophenyl)propane-1-sulfonamide] is more than 1000 nM; for `CCCS(=O)(=O)Nc1cccc(Oc2ccc3c(c2)C2=NCCN2C=N3)c1N` [Compound 13, N-(2-Amino-3-((2,3-dihydroimidazo[1,2-c]quinazolin-9-yl)oxy)phenyl)propane-1-sulfonamide] it is more than 1000 nM.
With `CCCS(=O)(=O)Nc1c([N+](=O)[O-])ccc(Oc2ccc3c(c2)C2=NCCCN2C=N3)c1F` [Compound 19, N-(3-((3,4-Dihydro-2H-pyrimido[1,2-c]quinazolin-10-yl)oxy)-2-fluoro-6-nitrophenyl)propane-1-sulfonamide] the figure was more than 1000 nM; with `CCCS(=O)(=O)Nc1c(N)ccc(Oc2ccc3c(c2)C2=NCCCN2C=N3)c1F` [Compound 20, N-(6-Amino-3-((3,4-dihydro-2H-pyrimido[1,2-c]quinazolin-10-yl)oxy)-2-fluorophenyl)propane-1-sulfonamide], more than 1000 nM.
Take `CCCS(=O)(=O)Nc1ccnc(Oc2ccc3c(c2)C2=NCCCN2C=N3)c1[N+](=O)[O-]` [Compound 22, N-(2-((3,4-Dihydro-2H-pyrimido[1,2-c]quinazolin-10-yl)oxy)-3-nitropyridin-4-yl)propane-1-sulfonamide]: the GI50 was more than 1000 nM.
`CCCS(=O)(=O)Nc1nccc(Oc2ccc3c(c2)C2=NCCCN2C=N3)c1C#N` [Compound 24, N-(3-Cyano-4-((3,4-dihydro-2H-pyrimido[1,2-c]quinazolin-10-yl)oxy)pyridin-2-yl)propane-1-sulfonamide] had a GI50 of more than 1000 nM.
`CCCS(=O)(=O)Nc1ccnc(Oc2ccc3c(c2)C2=NCCCN2C=N3)c1C#N` [Compound 25, N-(3-Cyano-2-((3,4-dihydro-2H-pyrimido[1,2-c]quinazolin-10-yl)oxy)pyridin-4-yl)propane-1-sulfonamide] returned a GI50 of more than 1000 nM.
The figure for `CCCS(=O)(=O)Nc1cccc(Oc2cc3c(cn2)N=CN2CCCN=C32)c1C#N` [Compound 27, N-(2-Cyano-3-((3,4-dihydro-2H-pyrido[4,3-e]pyrimido[1,2-c]pyrimidin-10-yl)oxy)phenyl)propane-1-sulfonamide] is 100 to 1000 nM; for `CCCS(=O)(=O)Nc1cccc(Oc2ccc3c(c2)C2=NCCCCN2C=N3)c1C#N` [Compound 28, N-(2-Cyano-3-((2,3,4,5-tetrahydro-[1,3]diazepino[1,2-c]quinazolin-11-yl)oxy)phenyl)propane-1-sulfonamide] it is more than 1000 nM; for `O=S(=O)(CCCF)Nc1cccc(Oc2ccc3c(c2)C2=NCCCN2C=N3)c1Cl` [Compound 38, N-(2-Chloro-3-((3,4-dihydro-2H-pyrimido[1,2-c]quinazolin-10-yl)oxy)phenyl)-3-fluoropropane-1-sulfonamide] it is less than 100 nM.
`O=S(=O)(CCCO)Nc1cccc(Oc2ccc3c(c2)C2=NCCCN2C=N3)c1Cl` [Compound 39, N-(2-Chloro-3-((3,4-dihydro-2H-pyrimido[1,2-c]quinazolin-10-yl)oxy)phenyl)-3-hydroxypropane-1-sulfonamide]: the GI50 was 100 to 1000 nM.
With `O=S(=O)(Nc1cccc(Oc2ccc3c(c2)C2=NCCCN2C=N3)c1Cl)N1CC[C@@H](F)C1` [Compound 40, (R)—N-(2-Chloro-3-((3,4-dihydro-2H-pyrimido[1,2-c]quinazolin-10-yl)oxy)phenyl)-3-fluoropyrrolidine-1-sulfonamide] the figure was less than 100 nM; with `CCN(C)S(=O)(=O)Nc1cccc(Oc2ccc3c(c2)C2=NCCCN2C=N3)c1Cl` [Compound 41, N-(2-Chloro-3-((3,4-dihydro-2H-pyrimido[1,2-c]quinazolin-10-yl)oxy)phenyl)-N-ethyl-N-methylamino-1-sulfonamide], less than 100 nM.
The figure for `CCCS(=O)(=O)Nc1cccc(N(C)c2cc3c(cn2)N=CN2CCCN=C32)c1C#N` [Compound 42, N-(2-Cyano-3-((3,4-dihydro-2H-pyrido[4,3-e]pyrimido[1,2-c]pyrimidin-10-yl)(methyl)amino)phenyl)propane-1-sulfonamide] is more than 1000 nM; for `CCCS(=O)(=O)Nc1cccc(Nc2cc3c(cn2)N=CN2CCCN=C32)c1C#N` [Compound 43, N-(2-Cyano-3-((3,4-dihydro-2H-pyrido[4,3-e]pyrimido[1,2-c]pyrimidin-10-yl)amino)phenyl)propane-1-sulfonamide] it is 100 to 1000 nM.
The figure for `CC(C)S(=O)(=O)Nc1cccc(Oc2ccc3c(c2)C2=NCCN2C=N3)c1Cl` [Compound 44, N-(2-Chloro-3-((2,3-dihydroimidazo[1,2-c]quinazolin-9-yl)oxy)phenyl)propane-2-sulfonamide] is less than 100 nM.
Compound `CCN(C)S(=O)(=O)Nc1cccc(Oc2ccc3c(c2)C2=NCCN2C=N3)c1Cl` [Compound 45, N-(2-Chloro-3-((2,3-dihydroimidazo[1,2-c]quinazolin-9-yl)oxy)phenyl)-N-ethyl-N-methylamino-1-sulfonamide] had a GI50 of more than 1000 nM.
With `CN(CCF)S(=O)(=O)Nc1cccc(Oc2ccc3c(c2)C2=NCCN2C=N3)c1Cl` [Compound 47, N-(2-Chloro-3-((2,3-dihydroimidazo[1,2-c]quinazolin-9-yl)oxy)phenyl)-(2-fluoroethyl)(methyl)amino-1-sulfonamide] the figure was less than 100 nM; with `O=S(=O)(Nc1cccc(Oc2ccc3c(c2)C2=NCCN2C=N3)c1Cl)N1CCCC1` [Compound 48, N-(2-Chloro-3-((2,3-dihydroimidazo[1,2-c]quinazolin-9-yl)oxy)phenyl)pyrrolidine-1-sulfonamide], less than 100 nM; with `O=S(=O)(Nc1cc(Oc2ccc3c(c2)C2=NCCN2C=N3)ccc1F)N1CCCC1` [Compound 49, N-(5-((2,3-Dihydroimidazo[1,2-c]quinazolin-9-yl)oxy)-2-fluorophenyl)pyrrolidine-1-sulfonamide], more than 1000 nM.
Take `CCCS(=O)(=O)Nc1cc(Oc2ccc3c(c2)C2=NCCN2C=N3)ccc1F` [Compound 51, N-(5-((2,3-Dihydroimidazo[1,2-c]quinazolin-9-yl)oxy)-2-fluorophenyl)propane-1-sulfonamide]: the GI50 was more than 1000 nM.
With `CC1(C)CN2C=Nc3ccc(Oc4cccc(NS(=O)(=O)N5CC[C@@H](F)C5)c4Cl)cc3C2=N1` [Compound 53, (R)—N-(2-Chloro-3-((2,2-dimethyl-2,3-dihydroimidazo[1,2-c]quinazolin-9-yl)oxy)phenyl)-3-fluoropyrrolidine-1-sulfonamide] the figure was less than 100 nM; with `CC1(C)CN2C=Nc3ccc(Oc4cccc(NS(=O)(=O)N5CCCC5)c4Cl)cc3C2=N1` [Compound 54, N-(2-Chloro-3-((2,2-dimethyl-2,3-dihydroimidazo[1,2-c]quinazolin-9-yl)oxy)phenyl)pyrrolidine-1-sulfonamide], less than 100 nM.
The figure for `CCCS(=O)(=O)Nc1cccc(Oc2ccc3c(c2)C2=NC(C)(C)CN2C=N3)c1Cl` [Compound 55, N-(2-Chloro-3-((2,2-dimethyl-2,3-dihydroimidazo[1,2-c]quinazolin-9-yl)oxy)phenyl)propane-1-sulfonamide] is less than 100 nM.

Broadly, the GI50 is the concentration giving 50% growth inhibition.
